In this data set the test system is rodent lifetime carcinogenesis bioassay, tumor incidence TD50. As to the kind of experiment: chronic cancer bioassays in animals – CPDB, compiled studies (AID 1745844).

The source made the active and inactive calls. How the calls were made is not given here.

With `O=C1NCCN1/N=C/c1ccc([N+](=O)[O-])o1`, the TD50 – broadly, the dose at which the toxic effect under study appears in half of the subjects – (rat, strain Sprague-Dawley, females, in feed, site: all sites, lesion: lymphoblastic lymphoma, dosed 46 weeks, study length 66 weeks) is 82 mg/kg/day and the TD50 (rat, strain Sprague-Dawley, females, in feed, site: mammary gland, lesion: adenocarcinoma, dosed 46 weeks, study length 66 weeks) was 5.26 mg/kg/day.
On to `CCCCC(CC)CO` (stereo unspecified), for which the TD50 is 1680 mg/kg/day (mouse, strain B6C3F1, females, by gavage, site: liver, lesion: hepatocellular carcinoma, dosed 80 weeks, study length 80 weeks) and 1710 mg/kg/day (inactive) (mouse, strain B6C3F1, males, by gavage, site: liver, lesion: several types, types named in the paper, dosed 80 weeks, study length 80 weeks). The carcinogen call (rat, strain Fischer 344, females, by gavage, site: liver, lesion: hepatocellular carcinoma, dosed 104 weeks, study length 104 weeks) was “negative (inactive)” and the carcinogen call (rat, strain Fischer 344, males, by gavage, site: liver, lesion: several types, types named in the paper, dosed 104 weeks, study length 104 weeks) is “negative (inactive)”.
As for `O=[N+]([O-])c1ccc2nc[nH]c2c1`, the TD50 is 429 mg/kg/day (mouse, strain B6C3F1, females, in feed, site: any site (literature study), lesion: several types, types named in the paper, dosed 78 weeks, study length 95 weeks); 354 mg/kg/day (mouse, strain B6C3F1, females, in feed, site: liver, lesion: hepatocellular adenoma + hepatocellular carcinoma + neoplastic nodule, dosed 78 weeks, study length 95 weeks); 354 mg/kg/day (mouse, strain B6C3F1, females, in feed, site: liver, lesion: hepatocellular adenoma + hepatocellular carcinoma, dosed 78 weeks, study length 95 weeks); 762 mg/kg/day (mouse, strain B6C3F1, females, in feed, site: liver, lesion: hepatocellular carcinoma, dosed 78 weeks, study length 95 weeks); 335 mg/kg/day (mouse, strain B6C3F1, females, in feed, site: pituitary gland, lesion: adenoma, NOS + chromophobe adenoma, dosed 78 weeks, study length 95 weeks); 1980 mg/kg/day (mouse, strain B6C3F1, males, in feed, site: any site (literature study), lesion: several types, types named in the paper, dosed 78 weeks, study length 95 weeks). The TD50 runs as follows: (mouse, strain B6C3F1, males, in feed, site: liver, lesion: hepatocellular adenoma + hepatocellular carcinoma + neoplastic nodule, dosed 78 weeks, study length 95 weeks) 392 mg/kg/day; (mouse, strain B6C3F1, males, in feed, site: liver, lesion: hepatocellular adenoma + hepatocellular carcinoma, dosed 78 weeks, study length 95 weeks) 392 mg/kg/day; (mouse, strain B6C3F1, males, in feed, site: liver, lesion: hepatocellular carcinoma, dosed 78 weeks, study length 95 weeks) 423 mg/kg/day; (rat, strain Fischer 344, males, in feed, site: liver, lesion: hepatocellular adenoma + hepatocellular carcinoma + neoplastic nodule, dosed 78 weeks, study length 105 weeks) 8830 mg/kg/day. The carcinogen call was “negative (inactive)” (rat, strain Fischer 344, females, in feed, site: any site (literature study), lesion: several types, types named in the paper, dosed 78 weeks, study length 105 weeks) and “negative (inactive)” (rat, strain Fischer 344, males, in feed, site: any site (literature study), lesion: several types, types named in the paper, dosed 78 weeks, study length 105 weeks).
For the compound `[CH3][Hg][Cl]`, the TD50 reads like this: (mouse, strain B6C3F1, females, in feed, site: kidney, lesion: renal-cell adenoma, dosed 104 weeks, study length 104 weeks) 65.8 mg/kg/day; (mouse, strain B6C3F1, males, in feed, site: kidney, lesion: renal-cell adenoma, dosed 104 weeks, study length 104 weeks) 9.83 mg/kg/day; (mouse, strain B6C3F1, males, in feed, site: kidney, lesion: renal-cell carcinoma, dosed 104 weeks, study length 104 weeks) 4.28 mg/kg/day; (mouse, strain B6C3F1, males, in feed, site: kidney, lesion: several types, types named in the paper, dosed 104 weeks, study length 104 weeks) 3.19 mg/kg/day; (mouse, strain Charles River CD1, females, in drinking water, site: any site (literature study), lesion: several types, types named in the paper, dosed 143 weeks, study length 151 weeks) 2.13 mg/kg/day (inactive); (mouse, strain Charles River CD1, males, in drinking water, site: any site (literature study), lesion: malignant tumor, dosed 135 weeks, study length 159 weeks) 9.64 mg/kg/day (inactive). In addition, the TD50 (mouse, strain Charles River CD1, males, in drinking water, site: any site (literature study), lesion: several types, types named in the paper, dosed 135 weeks, study length 159 weeks) is 5.63 mg/kg/day (inactive); the TD50 (mouse, strain ICR, females, in feed, site: liver, lesion: hemangioma, dosed 80 weeks, study length 80 weeks) was 26.1 mg/kg/day (inactive); the TD50 (mouse, strain ICR, females, in feed, site: lung, lesion: adenocarcinoma, dosed 80 weeks, study length 80 weeks) is 11.6 mg/kg/day (inactive); the TD50 (mouse, strain ICR, males, in feed, site: kidney, lesion: adenocarcinoma, dosed 78 weeks, study length 78 weeks) amounted to 3.2 mg/kg/day; the TD50 (mouse, strain ICR, males, in feed, site: kidney, lesion: adenocarcinoma, dosed 80 weeks, study length 80 weeks) was 1.48 mg/kg/day; the TD50 (mouse, strain ICR, males, in feed, site: kidney, lesion: adenocarcinoma, dosed 102 weeks, study length 104 weeks) was determined as 1.88 mg/kg/day. Moreover, the TD50 runs as follows: (mouse, strain ICR, males, in feed, site: kidney, lesion: adenoma, dosed 80 weeks, study length 80 weeks) 24.1 mg/kg/day; (mouse, strain ICR, males, in feed, site: kidney, lesion: several types, types named in the paper, dosed 78 weeks, study length 78 weeks) 0.896 mg/kg/day; (mouse, strain ICR, males, in feed, site: kidney, lesion: several types, types named in the paper, dosed 80 weeks, study length 80 weeks) 1.36 mg/kg/day; (mouse, strain ICR, males, in feed, site: kidney, lesion: several types, types named in the paper, dosed 102 weeks, study length 104 weeks) 1.69 mg/kg/day; (mouse, strain ICR, males, in feed, site: lung, lesion: adenocarcinoma, dosed 80 weeks, study length 80 weeks) 5.1 mg/kg/day; (rat, strain Sprague-Dawley, females, in feed, site: kidney, lesion: adenoma, dosed 130 weeks, study length 130 weeks) 15.7 mg/kg/day (inactive). The carcinogen call was “negative (inactive)” (mouse, strain Charles River CD1, females, in drinking water, site: any site (literature study), lesion: malignant tumor, dosed 143 weeks, study length 151 weeks); “negative (inactive)” (mouse, strain Charles River CD1, females, in drinking water, site: lung, lesion: one or several types, types not named, dosed 143 weeks, study length 151 weeks); “negative (inactive)” (mouse, strain Charles River CD1, males, in drinking water, site: lung, lesion: one or several types, types not named, dosed 135 weeks, study length 159 weeks); “negative (inactive)” (mouse, strain ICR, females, in feed, site: kidney, lesion: adenoma, dosed 80 weeks, study length 80 weeks); “negative (inactive)” (mouse, strain ICR, females, in feed, site: kidney, lesion: one or several types, types not named, dosed 52 weeks, study length 52 weeks); “negative (inactive)” (mouse, strain ICR, females, in feed, site: kidney, lesion: one or several types, types not named, dosed 78 weeks, study length 78 weeks). Also, the carcinogen call runs as follows: (mouse, strain ICR, females, in feed, site: kidney, lesion: one or several types, types not named, dosed 104 weeks, study length 104 weeks) “negative (inactive)”; (mouse, strain ICR, females, in feed, site: liver, lesion: hepatocellular adenoma, dosed 80 weeks, study length 80 weeks) “negative (inactive)”; (mouse, strain ICR, females, in feed, site: liver, lesion: hepatocellular carcinoma, dosed 80 weeks, study length 80 weeks) “negative (inactive)”; (mouse, strain ICR, females, in feed, site: lung, lesion: adenoma, dosed 80 weeks, study length 80 weeks) “negative (inactive)”; (rat, strain Sprague-Dawley, females, in feed, site: liver, lesion: one or several types, types not named, dosed 52 weeks, study length 52 weeks) “negative (inactive)”; (rat, strain Sprague-Dawley, females, in feed, site: liver, lesion: one or several types, types not named, dosed 78 weeks, study length 78 weeks) “negative (inactive)”. In addition, the carcinogen call is “negative (inactive)” (rat, strain Sprague-Dawley, females, in feed, site: liver, lesion: one or several types, types not named, dosed 130 weeks, study length 130 weeks); “negative (inactive)” (rat, strain Sprague-Dawley, males, in feed, site: liver, lesion: one or several types, types not named, dosed 52 weeks, study length 52 weeks); “negative (inactive)” (rat, strain Sprague-Dawley, males, in feed, site: liver, lesion: one or several types, types not named, dosed 78 weeks, study length 78 weeks); “negative (inactive)” (rat, strain Sprague-Dawley, males, in feed, site: liver, lesion: one or several types, types not named, dosed 130 weeks, study length 130 weeks); “negative (inactive)” (rat, strain Wistar, females, in feed, site: liver, lesion: one or several types, types not named, dosed 104 weeks, study length 104 weeks); “negative (inactive)” (rat, strain Wistar, males, in feed, site: liver, lesion: one or several types, types not named, dosed 104 weeks, study length 104 weeks).
As to `c1ccc2cc(Nc3ccc(Nc4ccc5ccccc5c4)cc3)ccc2c1`, the TD50 is 63.8 mg/kg/day (inactive) (mouse, strain B6AKF1, females, oral dosing, site: any site (literature study), lesion: several types, types named in the paper, dosed 76 weeks, study length 76 weeks); 221 mg/kg/day (inactive) (mouse, strain B6AKF1, females, oral dosing, site: lung, lesion: adenoma, dosed 76 weeks, study length 76 weeks); 235 mg/kg/day (inactive) (mouse, strain B6C3F1, females, oral dosing, site: any site (literature study), lesion: several types, types named in the paper, dosed 76 weeks, study length 76 weeks); 25.9 mg/kg/day (inactive) (mouse, strain B6C3F1, males, oral dosing, site: any site (literature study), lesion: several types, types named in the paper, dosed 76 weeks, study length 76 weeks); 59.4 mg/kg/day (inactive) (mouse, strain B6C3F1, males, oral dosing, site: liver, lesion: hepatoma, dosed 76 weeks, study length 76 weeks); 192 mg/kg/day (inactive) (mouse, strain B6C3F1, males, oral dosing, site: lung, lesion: adenoma, dosed 76 weeks, study length 76 weeks). Besides, the carcinogen call is “negative (inactive)” (mouse, strain B6AKF1, females, oral dosing, site: liver, lesion: hepatoma, dosed 76 weeks, study length 76 weeks); “negative (inactive)” (mouse, strain B6AKF1, males, oral dosing, site: any site (literature study), lesion: several types, types named in the paper, dosed 76 weeks, study length 76 weeks); “negative (inactive)” (mouse, strain B6AKF1, males, oral dosing, site: liver, lesion: hepatoma, dosed 76 weeks, study length 76 weeks); “negative (inactive)” (mouse, strain B6AKF1, males, oral dosing, site: lung, lesion: adenoma, dosed 76 weeks, study length 76 weeks); “negative (inactive)” (mouse, strain B6C3F1, females, oral dosing, site: liver, lesion: hepatoma, dosed 76 weeks, study length 76 weeks); “negative (inactive)” (mouse, strain B6C3F1, females, oral dosing, site: lung, lesion: several types, types named in the paper, dosed 76 weeks, study length 76 weeks).

The record behind these values is PubChem BioAssay AID1745844 (Carcinogenic Potency Database (CPDB), 2022).
